Results taken from patent publication US7151105B2, “Inhibitors of Hepatitis C virus RNA-dependent RNA polymerase, and compositions and treatments using the same” (Agouron Pharmaceuticals, Inc., priority 2004, dated 2006).

Target: T1, Recombinant HCV polymerase (Hepatitis C virus genotype 1b, UniProt P26663)
T1 construct: Recombinant HCV polymerase was tested for its ability to perform primer/template-directed transcription
Test: biochemical
Conditions: inhibition of polymerase-directed transcription; 30 min at 30° C; 30 nM enzyme; cpm data in triplicate
Experimental: The compounds described herein were tested for activity with HCV polymerase. Recombinant HCV polymerase was tested for its ability to perform primer/template-directed transcription in assays that contained 30 mM tris-HCl pH 7.2, 10 mM MgCl2, 20 mM NaCl, 1 mM Dithiothreitol (DTT), 0.05% Tween-20, 1% glycerol, 5 pmoles biotin-dG12 (primer), 0.5 pmoles poly(rC)300 (template), 1 μM GTP, 0.1–0.3 uCi α-^32P-GTP, and 2.5 pmoles (0.15 μg) HCV polymerase protein in a final volume of 75 μL. Reactions were initiated by addition of enzyme and incubated 30 minutes at 30° C. Reactions were stopped by addition of 33 mM EDTA, and polynucleotide products were collected by filtration through Diethylaminoethyl (DE) Filtermat papers (Wallac). Unincorporated triphosphate was removed by washing the filters with 5% dibasic sodium phosphate. The filters were counted in a Packard Tri-Lux Microbeta scintillation counter (Packard Bioscience, Meriden, Conn.). Compounds to be tested were added at various concentrations, e.g., 1 μm to 50 μm, from stocks in 10% DMSO-water (final DMSO is 1% in reaction).
IC50 values were estimated from the primary cpm data (collected in triplicate) using the formula: cpm (I)=cpm (no inhibitor)(1−([I]/([I]+IC50))). […] A percent inhibition value is expressed for a compound where it was impractical to calculate an IC50 value with available data.

T1 sequence (P26663 2420-3010): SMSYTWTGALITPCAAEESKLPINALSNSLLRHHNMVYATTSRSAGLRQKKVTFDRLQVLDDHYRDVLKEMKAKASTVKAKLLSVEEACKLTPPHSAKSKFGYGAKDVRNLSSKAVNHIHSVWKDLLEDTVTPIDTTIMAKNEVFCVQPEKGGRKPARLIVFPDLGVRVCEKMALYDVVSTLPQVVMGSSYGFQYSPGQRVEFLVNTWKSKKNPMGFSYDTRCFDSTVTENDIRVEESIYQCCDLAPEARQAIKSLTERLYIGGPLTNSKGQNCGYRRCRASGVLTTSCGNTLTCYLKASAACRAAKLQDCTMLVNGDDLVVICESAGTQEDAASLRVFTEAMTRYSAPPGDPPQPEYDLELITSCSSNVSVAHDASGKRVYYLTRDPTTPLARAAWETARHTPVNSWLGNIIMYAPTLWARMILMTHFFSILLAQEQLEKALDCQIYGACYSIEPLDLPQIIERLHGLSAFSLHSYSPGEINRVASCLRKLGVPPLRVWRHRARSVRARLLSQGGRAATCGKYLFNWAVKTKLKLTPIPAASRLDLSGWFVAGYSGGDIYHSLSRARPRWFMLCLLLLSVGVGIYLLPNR

Compound | IC50 [nM]
CCc1cc(CCC2(C3CCCC3)CC(O)=C(Cc3nc4ncc(C)cn4n3)C(=O)O2)c(OC)cn1 (centres unmarked) [A(4), 6-Cyclopentyl-6-[2-(2-ethyl-5-methoxypyridin-4-yl)ethyl]-4-hydroxy-3-[(6-methyl[1,2,4]triazolo[1,5-a]pyrimidin-2-yl)methyl]-5,6-dihydro-2H-pyran-2-one] | 7
CCc1ccc(OC)c(CCC2(C3CCCC3)CC(=O)CC(=O)O2)n1 (centres unmarked) [A(5), 6-Cyclopentyl-6-[2-(6-ethyl-3-methoxypyridin-2-yl)ethyl]dihydro-2H-pyran-2,4(3H)-dione] | 8600
COc1cnc(C)cc1CCC1(C2CCCC2)CC(=O)CC(=O)O1 (centres unmarked) [A(7), 6-Cyclopentyl-6-[2-(5-methoxy-2-methylpyridin-4-yl)ethyl]dihydro-2H-pyran-2,4(3H)dione] | 11300
Cc1cc(C)n2nc(CC3=C(O)CC(CCc4cc(CC(F)(F)F)nc(CC(F)(F)F)c4)(C4CCCC4)OC3=O)nc2n1 (centres unmarked) [A(9), 6-{2-[2,6-Bis(2,2,2-trifluoroethyl)pyridin-4-yl]ethyl}-6-cyclopentyl-3-[(5,7-dimethyl[1,2,4]triazolo[1,5-a]pyrimidin-2-yl)methyl]-4-hydroxy-5,6-dihydro-2H-pyran-2-one] | 5
CCc1ccnc(CCC2(C3CCCC3)CC(O)=C(Cc3nc4ncc(C)cn4n3)C(=O)O2)c1 (centres unmarked) [A(16), 6-Cyclopentyl-6-[2-(4-ethylpyridin-2-yl)ethyl]-4-hydroxy-3-[(6-methyl[1,2,4]triazolo[1,5-a]pyrimidin-2-yl)methyl]-5,6-dihydro-2H-pyran-2-one] | 55
CCc1cc(CC[C@]2(C3CCCC3)CC(O)=C(Cc3nc4ncc(C)cn4n3)C(=O)O2)c(O)cc1O [A(21), (6R)-6-cyclopentyl-6-[2-(5-ethyl-2,4dihydroxyphenyl)ethyl]-4-hydroxy-3-[(6-methyl[1,2,4]triazolo[1,5-a]pyrimidin-2-yl)methyl]-5,6-dihydro-2H-pyran-2-one] | 1
CCOc1cc(O)c(CC)cc1CCC1(C2CCCC2)CC(O)=C(Cc2nc3nc(C)cc(C)n3n2)C(=O)O1 (centres unmarked) [A(22), 6-Cyclopentyl-3-[(5,7-dimethyl[1,2,4]triazolo[1,5-a]pyrimidin-2-yl)methyl]-6-[2-(2-ethoxy-5-ethyl-4-hydroxyphenyl)ethyl]-4-hydroxy-5,6-dihydro-2H-pyran-2-one] | 4
COc1ccc(CCC2(C3CCCC3)CC(O)=C(Cc3nc4nc(C)cc(C)n4n3)C(=O)O2)cc1C(F)(F)F (centres unmarked) [A(23), 6-Cyclopentyl-3-[(5,7-dimethyl[1,2,4]triazolo[1,5-a]pyrimidin-2-yl)methyl]-4-hydroxy-6-{2-[4-methoxy-3-(trifluoromethyl)phenyl]ethyl}-5,6-dihydro-2H-pyran-2-one] | 6
CCc1cc(CCC2(C3CCCC3)CC(O)=C(Cc3nc4nc(C)cc(C)n4n3)C(=O)O2)c(OC)cc1OC (centres unmarked) [A(24), 6-Cyclopentyl-3-[(5,7-dimethyl[1,2,4]triazolo[1,5-a]pyrimidin-2-yl)methyl]-6-[2-(5-ethyl-2,4-dimethoxyphenyl)ethyl]-4-hydroxy-5,6-dihydro-2H-pyran-2-one] | 14
CC(=O)NCc1ccc(CCC2(C3CCCC3)CC(O)=C(Cc3nc4nc(C)cc(C)n4n3)C(=O)O2)cc1F (centres unmarked) [A(25), N-[4-(2-{2-Cyclopentyl-5-[(5,7-dimethyl[1,2,4]triazolo[1,5-a]pyrimidin-2-yl)methyl]-4-hydroxy-6-oxo-3,6dihydro-2H-pyran-2-yl}ethyl)-2-fluorobenzyl]acetamide] | 100
CCOc1cc(O)c(CC)cc1CCC1(C2CCCC2)CC(O)=C(Cc2nc3ncc(C)cn3n2)C(=O)O1 (centres unmarked) [A(26), 6-Cyclopentyl-6-[2-(2-ethoxy-5-ethyl-4-hydroxyphenyl)ethyl]-4-hydroxy-3-[(6-methyl[1,2,4]triazolo[1,5-a]pyrimidin-2-yl)methyl]-5,6-dihydro-2H-pyran-2-one] | 4
Cc1cc(C)n2nc(CC3=C(O)CC(CCc4ccc(O)c(C(F)(F)F)c4)(C4CCCC4)OC3=O)nc2n1 (centres unmarked) [A(28), 6-Cyclopentyl-3-[(5,7-dimethyl[1,2,4]triazolo[1,5-a]pyrimidin-2-yl)methyl]-4-hydroxy-6-{2-[4-hydroxy-3-(trifluoromethyl)phenyl]ethyl}-5,6dihydro-2H-pyran-2-one] | 2
Cc1cc(C)n2nc(CC3=C(O)CC(CCc4ccc(C(C)(C)NS(C)(=O)=O)c(F)c4)(C4CCCC4)OC3=O)nc2n1 (centres unmarked) [A(29), N-{1-[4-(2-{2-cyclopentyl-5-[(5,7-dimethyl[1,2,4]triazolo[1,5-a]pyrimidin-2-yl)methyl]-4-hydroxy-6-oxo-3,6-dihydro-2H-pyran-2-yl}ethyl)-2-fluorophenyl]-1-methylethyl}methanesulfonamide] | 17
CCc1cc(CCC2(C3CCCC3)CC(O)=C(Cc3nc4nc(C)cc(C)n4n3)C(=O)O2)c(OCC2CC2)cc1O (centres unmarked) [A(32), 6-Cyclopentyl-6-{2-[2-(cyclopropylmethoxy)-5-ethyl-4-hydroxyphenyl]ethyl}-3-[(5,7-dimethyl[1,2,4]triazolo[1,5-a]pyrimidin-2-yl)methyl]-4-hydroxy-5,6-dihydro-2H-pyran-2-one] | 5
CCc1cc(CCC2(C3CCCC3)CC(O)=C(Cc3nc4ncc(C)cn4n3)C(=O)O2)cc(CC)n1 (centres unmarked) [A(36)] | 30

Other lines, results leading:

IC50 [nM] | Compound
39 | CCc1ccc(OC)c(CCC2(C3CCCC3)CC(O)=C(Cc3nc4nc(C)cc(C)n4n3)C(=O)O2)n1 (centres unmarked) [A(6), 6-Cyclopentyl-3-[(5,7-dimethyl[1,2,4]triazolo[1,5-a]pyrimidin-2-yl)methyl]6-[2-(6-ethyl-3-methoxypyridin-2-yl)ethyl]4-hydroxy-5,6-dihydro-2H-pyran-2-one]
99 | COc1cnc(C)cc1CCC1(C2CCCC2)CC(O)=C(Cc2nc3nc(C)cc(C)n3n2)C(=O)O1 (centres unmarked) [A(8), 6-Cyclopentyl-3-[(5,7-dimethyl[1,2,4]triazolo[1,5-a]pyrimidin-2-yl)methyl]-4-hydroxy-6-[2-(5methoxy-2-methylpyridin-4-yl)ethyl]-5,6-dihydro-2H-pyran-2-one]
8 | CCc1cncc(CCC2(C3CCCC3)CC(O)=C(Cc3nc4nc(C)cc(C)n4n3)C(=O)O2)c1 (centres unmarked) [A(14), 6-Cyclopentyl-3-[(5,7-dimethyl[1,2,4]triazolo[1,5-a]pyrimidin-2-yl)methyl]-6-[2-(5-ethylpyridin-3-yl)ethyl]-4-hydroxy-5,6dihydro-2H-pyran-2-one]
7 | CCc1ccnc(CCC2(C3CCCC3)CC(O)=C(Cc3nc4nc(C)cc(C)n4n3)C(=O)O2)c1 (centres unmarked) [A(15), 6-Cyclopentyl-3-[(5,7-dimethyl[1,2,4]triazolo[1,5-a]pyrimidin-2-yl)methyl]-6-[2-(4-ethylpyridin-2-yl)ethyl]-4-hydroxy-5,6-dihydro-2H-pyran-2-one]
170 | Cc1cc(CCC2(C3CCCC3)CC(O)=C(Cc3nc4nc(C)cc(C)n4n3)C(=O)O2)cc(C)n1 (centres unmarked) [A(18), 6-Cyclopentyl-6-[2-(2,6-dimethylpyridin-4-yl)ethyl]-3[(5,7-dimethyl[1,2,4]triazolo[1,5-a]pyrimidin-2-yl)methyl]-4-hydroxy-5,6dihydro-2H-pyran-2-one]
12 | CCc1ccc(CCCOC)c(CCC2(C3CCCC3)CC(O)=C(Cc3nc4nc(C)cc(C)n4n3)C(=O)O2)c1 (centres unmarked) [A(19), 6Cyclopentyl-3-[(5,7-dimethyl[1,2,4]triazolo[1,5-a]pyrimidin-2-yl)methyl]-6-{2-[5-ethyl-2-(3-methoxypropyl)phenyl]ethyl}-4-hydroxy-5,6dihydro-2H-pyran-2-one]
9 | CCc1cc(CCC2(C3CCCC3)CC(O)=C(Cc3nc4nc(C)cc(C)n4n3)C(=O)O2)ccc1CCCOC (centres unmarked) [A(20), 6-Cyclopentyl-3-[(5,7-dimethyl[1,2,4]triazolo[1,5-a]pyrimidin-2-yl)methyl]=6-{2-[3-ethyl-4-(3-methoxypropyl)phenyl]ethyl} -4-hydroxy-5,6-dihydro-2H-pyran-2-one]
3 | CCOc1cnc(CC)cc1CCC1(C2CCCC2)CC(O)=C(Cc2nc3nc(C)cc(C)n3n2)C(=O)O1 (centres unmarked) [A(27), 6-Cyclopentyl-3-[(5,7-dimethyl[1,2,4]triazolo[1,5-a]pyrimidin-2-yl)methyl]-6-[2-(5-ethoxy-2-ethylpyridin-4-yl)ethyl]-4-hydroxy-5,6-dihydro-2H-pyran-2-one]
7 | Cc1cc(C)n2nc(CC3=C(O)CC(CCc4ccnc(C(C)C)c4)(C4CCCC4)OC3=O)nc2n1 (centres unmarked) [A(33), 6Cyclopentyl-3-[(5,7-dimethyl[1,2,4]triazolo[1,5-a]pyrimidin-2-yl)methyl]-4-hydroxy-6-[2-(2-isopropylpyridin-4-yl)ethyl]-5,6-dihydro-2H-pyran-2-one]
12 | CCc1cc(CCC2(C3CCCC3)CC(O)=C(Cc3nc4nc(C)cc(C)n4n3)C(=O)O2)cc(C(C)C)n1 (centres unmarked) [A(34), 6-Cyclopentyl-3-[(5,7-dimethyl[1,2,4]triazolo[1,5-a]pyrimidin-2-yl)methyl]-6-[2-(2-ethyl-6-isopropylpyridin-4-yl)ethyl]-4-hydroxy-5,6-dihydro-2H-pyran-2-one]
9 | CCc1cc(CCC2(C3CCCC3)CC(O)=C(Cc3nc4nc(C)cc(C)n4n3)C(=O)O2)cc(C)n1 (centres unmarked) [A(35), 6-Cyclopentyl-3-[(5,7-dimethyl[1,2,4]triazolo[1,5-a]pyrimidin-2-yl)methyl]-6-[2-(2-ethyl-6-methylpyridin-4-yl)ethyl]-4-hydroxy-5,6-dihydro-2H-pyran-2-one]
